In patent US12441703B2, “Carboxamides as modulators of sodium channels” (VERTEX PHARMACEUTICALS INCORPORATED, priority 2019, dated 2025):

What follows are compounds tested against human NaV 1.8 (Homo sapiens, UniProt Q9Y5Y9) (assay: E-VIPR assay for detecting and measuring NaV inhibition properties). Details: E-VIPR assay conducted in the absence of human serum (compounds marked *); HEK cells expressing truncated human NaV 1.8; read-out: IC50.
Format: cell-based
How it was run: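 Membrane-potential (coumarin/oxonol) readout after 10 s of 10 Hz biphasic electrical stimulation on E-VIPR. Compounds: 11-point 3-fold dilutions, […], 0.625% DMSO, 30 min at room temperature, human serum optional. Cells: HEK expressing truncated human NaV1.8 co-transduced with KIR2.1.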

Chain of human NaV 1.8 (Q9Y5Y9 whole entry, looked up, the tested form may be a part): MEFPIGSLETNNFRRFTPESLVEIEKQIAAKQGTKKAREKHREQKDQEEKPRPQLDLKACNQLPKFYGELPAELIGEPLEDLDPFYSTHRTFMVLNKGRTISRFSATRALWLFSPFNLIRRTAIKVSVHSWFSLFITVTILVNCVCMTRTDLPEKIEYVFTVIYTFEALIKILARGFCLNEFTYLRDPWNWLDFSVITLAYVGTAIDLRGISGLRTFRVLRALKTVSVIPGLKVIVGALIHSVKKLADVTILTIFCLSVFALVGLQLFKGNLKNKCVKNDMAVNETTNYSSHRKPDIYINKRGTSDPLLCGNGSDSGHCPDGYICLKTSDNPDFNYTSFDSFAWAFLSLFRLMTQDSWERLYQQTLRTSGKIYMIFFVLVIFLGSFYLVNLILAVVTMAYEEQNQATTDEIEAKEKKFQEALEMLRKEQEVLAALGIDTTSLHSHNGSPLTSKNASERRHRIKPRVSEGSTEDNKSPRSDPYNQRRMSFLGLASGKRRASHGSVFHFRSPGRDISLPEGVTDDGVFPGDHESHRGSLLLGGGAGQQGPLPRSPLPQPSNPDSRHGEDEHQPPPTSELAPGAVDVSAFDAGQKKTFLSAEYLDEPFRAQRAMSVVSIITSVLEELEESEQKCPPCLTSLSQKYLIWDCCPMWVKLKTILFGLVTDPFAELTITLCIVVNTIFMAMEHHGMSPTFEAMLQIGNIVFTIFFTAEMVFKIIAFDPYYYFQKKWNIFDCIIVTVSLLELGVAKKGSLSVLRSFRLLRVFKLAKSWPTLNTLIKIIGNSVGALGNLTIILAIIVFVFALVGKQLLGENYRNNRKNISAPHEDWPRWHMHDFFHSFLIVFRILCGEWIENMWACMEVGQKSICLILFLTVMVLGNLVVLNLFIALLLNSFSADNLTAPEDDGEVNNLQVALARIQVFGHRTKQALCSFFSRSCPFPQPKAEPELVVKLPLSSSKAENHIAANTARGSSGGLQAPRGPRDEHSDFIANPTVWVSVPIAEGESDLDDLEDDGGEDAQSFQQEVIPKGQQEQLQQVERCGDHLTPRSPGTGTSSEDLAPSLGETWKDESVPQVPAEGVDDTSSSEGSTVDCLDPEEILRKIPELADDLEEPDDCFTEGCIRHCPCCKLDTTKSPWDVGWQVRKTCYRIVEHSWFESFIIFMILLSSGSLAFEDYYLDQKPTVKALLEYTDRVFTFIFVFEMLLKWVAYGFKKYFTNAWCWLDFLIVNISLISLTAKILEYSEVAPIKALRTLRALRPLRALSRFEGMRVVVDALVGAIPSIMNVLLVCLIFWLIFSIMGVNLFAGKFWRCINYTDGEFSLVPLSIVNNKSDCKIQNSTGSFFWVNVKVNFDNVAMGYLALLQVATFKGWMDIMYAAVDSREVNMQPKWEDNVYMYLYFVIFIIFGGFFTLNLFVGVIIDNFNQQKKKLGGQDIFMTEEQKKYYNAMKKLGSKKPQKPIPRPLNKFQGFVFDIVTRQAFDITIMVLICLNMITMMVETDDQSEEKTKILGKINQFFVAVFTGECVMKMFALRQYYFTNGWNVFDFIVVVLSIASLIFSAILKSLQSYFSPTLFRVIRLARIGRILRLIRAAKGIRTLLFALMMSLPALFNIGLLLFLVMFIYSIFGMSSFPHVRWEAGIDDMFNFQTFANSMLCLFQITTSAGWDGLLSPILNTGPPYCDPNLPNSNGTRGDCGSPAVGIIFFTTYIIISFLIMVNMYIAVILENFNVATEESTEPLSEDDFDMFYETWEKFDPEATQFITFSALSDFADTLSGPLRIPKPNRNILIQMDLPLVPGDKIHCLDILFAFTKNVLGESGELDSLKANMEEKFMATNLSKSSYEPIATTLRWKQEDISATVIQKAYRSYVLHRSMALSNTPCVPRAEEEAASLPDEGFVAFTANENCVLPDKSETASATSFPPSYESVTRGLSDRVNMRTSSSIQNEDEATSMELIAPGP

| IC50 | Structure (SMILES) |
| --- | --- |
| 0.075 µM | COc1c(Oc2cnc(C(F)(F)F)c(C)c2C(=O)Nc2ccc(C(N)=O)nc2)ccc(F)c1F [Compound 358, N-(6-carbamoyl-3-pyridyl)-5-(3,4-difluoro-2-methoxy-phenoxy)-3-methyl-2-(trifluoromethyl)pyridine-4-carboxamide] |

Same assay, conditions: E-VIPR assay conducted in the presence of human serum; HEK cells expressing truncated human NaV 1.8; read-out: IC50

| Structure (SMILES) | IC50 |
| --- | --- |
| COc1c(Oc2cc3c(c(C)c2C(=O)Nc2ccnc(C(N)=O)c2)OC(F)(F)O3)ccc(OC(F)(F)F)c1F [Compound 327, 4-[[2,2-difluoro-6-[3-fluoro-2-methoxy-4-(trifluoromethoxy)phenoxy]-4-methyl-1,3-benzodioxole-5-carbonyl]amino]pyridine-2-carboxamide] | 0.0083 µM |
| COc1c(Oc2ccc(C(F)(F)F)c(F)c2C(=O)Nc2cc(C(N)=O)ncn2)ccc(OC(F)(F)F)c1F [Compound 329, 6-[[2-fluoro-6-[3-fluoro-2-methoxy-4-(trifluoromethoxy)phenoxy]-3-(trifluoromethyl)benzoyl]amino]pyrimidine-4-carboxamide] | 0.0127 µM |
| COc1c(Oc2ccc(C(F)(F)F)c(F)c2C(=O)Nc2cc(C(N)=O)ccn2)ccc(OC(F)(F)F)c1F [Compound 330, 2-[[2-fluoro-6-[3-fluoro-2-methoxy-4-(trifluoromethoxy)phenoxy]-3-(trifluoromethyl)benzoyl]amino]pyridine-4-carboxamide] | 0.029 µM |
| COc1c(Oc2ccc(C(F)(F)F)c(F)c2C(=O)Nc2cnc(C(N)=O)nc2)ccc(OC(F)(F)F)c1F [Compound 331, 5-[[2-fluoro-6-[3-fluoro-2-methoxy-4-(trifluoromethoxy)phenoxy]-3-(trifluoromethyl)benzoyl]amino]pyrimidine-2-carboxamide] | 0.0046 µM |
| COc1c(Oc2cnc(C(F)(F)F)c(F)c2C(=O)Nc2ccnc(C(N)=O)c2)ccc(OC(F)(F)F)c1F [Compound 332, N-(2-carbamoyl-4-pyridyl)-3-fluoro-5-[3-fluoro-2-methoxy-4-(trifluoromethoxy)phenoxy]-2-(trifluoromethyl)pyridine-4-carboxamide] | 0.0027 µM |
| COc1c(Oc2cnc(C(F)(F)F)c(OC)c2C(=O)Nc2ccnc(C(N)=O)c2)ccc(OC(F)(F)F)c1F [Compound 333, N-(2-carbamoyl-4-pyridyl)-5-[3-fluoro-2-methoxy-4-(trifluoromethoxy)phenoxy]-3-methoxy-2-(trifluoromethyl)pyridine-4-carboxamide] | 0.0049 µM |
| COc1c(Oc2cnc(C(F)(F)F)c(OC)c2C(=O)Nc2cc(C(N)=O)ncc2C)ccc(OC(F)(F)F)c1F [Compound 334, N-(2-carbamoyl-5-methyl-4-pyridyl)-5-[3-fluoro-2-methoxy-4-(trifluoromethoxy)phenoxy]-3-methoxy-2-(trifluoromethyl)pyridine-4-carboxamide] | 0.007 µM |
| COc1c(Oc2cnc(C(F)(F)F)c(C)c2C(=O)Nc2cnc(C(N)=O)nc2)ccc(OC(F)(F)F)c1F [Compound 335, 5-[[5-[3-fluoro-2-methoxy-4-(trifluoromethoxy)phenoxy]-3-methyl-2-(trifluoromethyl)pyridine-4-carbonyl]amino]pyrimidine-2-carboxamide] | 0.0155 µM |
| COc1c(Oc2cnc(C(F)(F)F)c(C)c2C(=O)Nc2cc(C(N)=O)ncc2C)ccc(OC(F)(F)F)c1F [Compound 336, N-(2-carbamoyl-5-methyl-4-pyridyl)-5-[3-fluoro-2-methoxy-4-(trifluoromethoxy)phenoxy]-3-methyl-2-(trifluoromethyl)pyridine-4-carboxamide] | 0.0056 µM |
| COc1c(Oc2cnc(C(F)(F)F)c(C)c2C(=O)Nc2ccc(C(N)=O)nc2)ccc(OC(F)(F)F)c1F [Compound 337, N-(6-carbamoyl-3-pyridyl)-5-[3-fluoro-2-methoxy-4-(trifluoromethoxy)phenoxy]-3-methyl-2-(trifluoromethyl)pyridine-4-carboxamide] | 0.0205 µM |
| Cc1c(Oc2ccc(C(F)(F)F)c(F)c2C(=O)Nc2ccnc(C(N)=O)c2)ccc(F)c1Cl [Compound 338, 4-[[6-(3-chloro-4-fluoro-2-methyl-phenoxy)-2-fluoro-3-(trifluoromethyl)benzoyl]amino]pyridine-2-carboxamide] | 0.047 µM |
| NC(=O)c1cc(NC(=O)c2c(Oc3ccc(F)c(F)c3Cl)ccc(C(F)(F)F)c2F)ccn1 [Compound 339, 4-[[6-(2-chloro-3,4-difluoro-phenoxy)-2-fluoro-3-(trifluoromethyl)benzoyl]amino]pyridine-2-carboxamide] | 0.027 µM |
| NC(=O)c1cc(NC(=O)c2c(Oc3c(F)ccc(F)c3C3CC3)ccc(C(F)(F)F)c2F)ccn1 [Compound 340, 4-[[6-(2-cyclopropyl-3,6-difluoro-phenoxy)-2-fluoro-3-(trifluoromethyl)benzoyl]amino]pyridine-2-carboxamide] | > 3 µM |

Second part, the compound after the results:

| IC50 | Structure (SMILES) |
| --- | --- |
| 0.33 µM | COc1cc(C(F)F)ccc1Oc1ccc(C(F)(F)F)c(F)c1C(=O)Nc1ccnc(C(N)=O)c1 [Compound 341, 4-[[6-[4-(difluoromethyl)-2-methoxy-phenoxy]-2-fluoro-3-(trifluoromethyl)benzoyl]amino]pyridine-2-carboxamide] |
| 0.0048 µM | COc1c(Oc2ccc(C(F)(F)F)c(F)c2C(=O)Nc2ccnc(C(N)=O)c2)ccc(OC(F)F)c1F [Compound 343, 4-[[6-[4-(difluoromethoxy)-3-fluoro-2-methoxy-phenoxy]-2-fluoro-3-(trifluoromethyl)benzoyl]amino]pyridine-2-carboxamide] |
| 0.0047 µM | CCc1c(Oc2ccc(C(F)(F)F)c(F)c2C(=O)Nc2ccnc(C(N)=O)c2)ccc(OC(F)(F)F)c1F [Compound 344, 4-[[6-[2-ethyl-3-fluoro-4-(trifluoromethoxy)phenoxy]-2-fluoro-3-(trifluoromethyl)benzoyl]amino]pyridine-2-carboxamide] |
| 0.0025 µM | NC(=O)c1cc(NC(=O)c2c(Oc3ccc(OC(F)(F)F)c(F)c3C3CC3)ccc(C(F)(F)F)c2F)ccn1 [Compound 345, 4-[[6-[2-cyclopropyl-3-fluoro-4-(trifluoromethoxy)phenoxy]-2-fluoro-3-(trifluoromethyl)benzoyl]amino]pyridine-2-carboxamide] |
| 0.0058 µM | CCOc1cc(OC(F)(F)F)ccc1Oc1ccc(C(F)(F)F)c(F)c1C(=O)Nc1ccnc(C(N)=O)c1 [Compound 346, 4-[[6-[2-ethoxy-4-(trifluoromethoxy)phenoxy]-2-fluoro-3-(trifluoromethyl)benzoyl]amino]pyridine-2-carboxamide] |
| 0.0031 µM | CCOc1cc(OC(F)(F)F)ccc1Oc1cc(OC)c(C(F)(F)F)c(F)c1C(=O)Nc1ccnc(C(N)=O)c1 [Compound 347, 4-[[6-[2-ethoxy-4-(trifluoromethoxy)phenoxy]-2-fluoro-4-methoxy-3-(trifluoromethyl)benzoyl]amino]pyridine-2-carboxamide] |
| 0.02 µM | COc1cc(Oc2ccc(F)c(F)c2C)c(C(=O)Nc2ccnc(C(N)=O)c2)c(F)c1C(F)(F)F [Compound 348, 4-[[6-(3,4-difluoro-2-methyl-phenoxy)-2-fluoro-4-methoxy-3-(trifluoromethyl)benzoyl]amino]pyridine-2-carboxamide] |
| > 3 µM | CC(C)(C)c1cc(Cc2ccccc2)c(C(=O)Nc2ccnc(C(N)=O)c2)cn1 [Compound 349, 4-benzyl-6-tert-butyl-N-(2-carbamoyl-4-pyridyl)pyridine-3-carboxamide] |
| > 3 µM | CC(C)(C)c1cc(Cc2ccc(F)c(F)c2)c(C(=O)Nc2ccnc(C(N)=O)c2)cn1 [Compound 350, 6-tert-butyl-N-(2-carbamoyl-4-pyridyl)-4-[(3,4-difluorophenyl)methyl]pyridine-3-carboxamide] |
| 0.41 µM | COc1cc(F)ccc1Oc1cc(C(F)(F)F)nc(C)c1C(=O)Nc1ccnc(C(N)=O)c1 [Compound 351, N-(2-carbamoyl-4-pyridyl)-4-(4-fluoro-2-methoxy-phenoxy)-2-methyl-6-(trifluoromethyl)pyridine-3-carboxamide] |
| 0.0018 µM | COc1cc(OC(F)(F)F)ccc1Oc1cc(OC)c(C(F)(F)F)c(F)c1C(=O)Nc1ccnc(C(N)=O)c1 [Compound 352, 4-[[2-fluoro-4-methoxy-6-[2-methoxy-4-(trifluoromethoxy)phenoxy]-3-(trifluoromethyl)benzoyl]amino]pyridine-2-carboxamide] |
| 0.0174 µM | COc1cc(OC(F)(F)F)ccc1Oc1cc(OC)c(C(F)(F)F)c(F)c1C(=O)Nc1ccc(C(N)=O)nc1 [Compound 353, 5-[[2-fluoro-4-methoxy-6-[2-methoxy-4-(trifluoromethoxy)phenoxy]-3-(trifluoromethyl)benzoyl]amino]pyridine-2-carboxamide] |
| 0.03 µM | COc1cc(OC(F)(F)F)ccc1Oc1ccc(C(F)(F)F)c(F)c1C(=O)Nc1cc(C(N)=O)[n+]([O-])cc1C [Compound 354, 4-[[2-fluoro-6-[2-methoxy-4-(trifluoromethoxy)phenoxy]-3-(trifluoromethyl)benzoyl]amino]-5-methyl-1-oxido-pyridin-1-ium-2-carboxamide] |
| 0.15 µM | COc1cc(OC(F)(F)F)ccc1Oc1ccc(C(F)(F)F)c(F)c1C(=O)Nc1cc(C(N)=O)ncn1 [Compound 355, 6-[[2-fluoro-6-[2-methoxy-4-(trifluoromethoxy)phenoxy]-3-(trifluoromethyl)benzoyl]amino]pyrimidine-4-carboxamide] |
| 0.0033 µM | COc1cc(OC(F)(F)F)ccc1Oc1ccc(C(F)(F)F)c(F)c1C(=O)Nc1cnnc(C(N)=O)c1 [Compound 356, 5-[[2-fluoro-6-[2-methoxy-4-(trifluoromethoxy)phenoxy]-3-(trifluoromethyl)benzoyl]amino]pyridazine-3-carboxamide] |
| 0.015 µM | COc1cc(OC(F)(F)F)ccc1Oc1ccc(C(F)(F)F)c(F)c1C(=O)Nc1cnc(C(N)=O)nc1 [Compound 357, 5-[[2-fluoro-6-[2-methoxy-4-(trifluoromethoxy)phenoxy]-3-(trifluoromethyl)benzoyl]amino]pyrimidine-2-carboxamide] |
